Source: ChEMBL document CHEMBL1156187, “Discovery of a selective small-molecule melanocortin-4 receptor agonist with efficacy in a pilot study of sexual dysfunction in humans” (J Med Chem, 2010)

Tests used:
[1] = target: T1, Melanocortin receptor 4 (Homo sapiens, UniProt P32245); test: Agonist activity at human recombinant MC4 receptor expressed in CHO cells by cAMP responsive beta lactamase reporter gene assay; type: functional, cell-based
[2] = Lipophilicity, log D at pH 7.4; type: physicochemical; settings: buffer
[3] = Intrinsic clearance in human liver microsome measured per mg of protein; type: ADME; settings: liver microsomes
[4] = target: T2, Melanocortin receptor 3 (Homo sapiens, UniProt P41968); test: Agonist activity at human recombinant MC3 receptor expressed in CHO cells assessed as cAMP accumulation by enzyme fragment complementation assay relative to […]; type: functional, cell-based
T2 sequence (P41968 whole entry, the tested form may be a part): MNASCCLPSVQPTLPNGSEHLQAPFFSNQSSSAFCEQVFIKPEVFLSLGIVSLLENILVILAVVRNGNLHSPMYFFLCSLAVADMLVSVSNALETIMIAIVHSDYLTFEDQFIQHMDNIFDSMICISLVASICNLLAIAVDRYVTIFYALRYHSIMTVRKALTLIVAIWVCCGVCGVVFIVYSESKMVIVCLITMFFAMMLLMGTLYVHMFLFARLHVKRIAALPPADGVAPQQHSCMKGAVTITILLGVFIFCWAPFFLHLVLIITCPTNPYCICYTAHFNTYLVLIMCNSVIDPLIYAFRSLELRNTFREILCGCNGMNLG

[5] = target: T2, Melanocortin receptor 3; test: Agonist activity at human recombinant MC3 receptor expressed in CHO cells assessed as cAMP accumulation by enzyme fragment complementation assay; type: functional, cell-based
[6] = target: T3, Melanocyte-stimulating hormone receptor (Homo sapiens, UniProt Q01726); test: Agonist activity at human recombinant MC1 receptor expressed in HEK293 cells assessed as cAMP accumulation by enzyme fragment complementation assay; type: functional, cell-based
Target sequence in this assay (Q01726 whole entry, the tested form may be a part): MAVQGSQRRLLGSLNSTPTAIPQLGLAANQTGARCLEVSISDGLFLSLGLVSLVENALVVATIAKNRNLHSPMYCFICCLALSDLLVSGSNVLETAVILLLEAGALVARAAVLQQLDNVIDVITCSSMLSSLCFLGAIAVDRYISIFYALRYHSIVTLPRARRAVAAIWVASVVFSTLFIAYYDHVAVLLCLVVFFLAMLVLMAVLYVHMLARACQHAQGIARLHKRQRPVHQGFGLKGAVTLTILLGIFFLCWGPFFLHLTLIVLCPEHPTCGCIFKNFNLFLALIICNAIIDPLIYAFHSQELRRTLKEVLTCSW

[7] = target: T4, Melanocortin receptor 5 (Homo sapiens, UniProt P33032); test: Agonist activity at human recombinant MC5 receptor expressed in HEK293 cells assessed as cAMP accumulation by beta lactamase reporter gene assay; type: functional, cell-based
T4 sequence (P33032 whole entry): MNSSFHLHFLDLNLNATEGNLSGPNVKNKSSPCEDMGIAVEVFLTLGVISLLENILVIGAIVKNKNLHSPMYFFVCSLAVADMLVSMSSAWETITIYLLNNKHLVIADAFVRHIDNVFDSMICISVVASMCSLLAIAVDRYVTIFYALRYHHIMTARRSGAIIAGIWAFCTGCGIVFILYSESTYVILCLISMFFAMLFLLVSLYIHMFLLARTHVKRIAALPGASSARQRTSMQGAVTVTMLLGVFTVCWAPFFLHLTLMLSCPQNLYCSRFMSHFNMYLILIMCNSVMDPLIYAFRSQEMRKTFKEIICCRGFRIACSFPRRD

[8] = target: T4, Melanocortin receptor 5; test: Agonist activity at human recombinant MC5 receptor expressed in HEK293 cells assessed as cAMP accumulation by beta lactamase reporter gene assay relative to alpha melanocyte-stimulating hormone; type: functional, cell-based
[9] = target: T1, Melanocortin receptor 4; test: Displacement of [125I]-MT-II from human recombinant MC4 receptor expressed in CHO cells by scintillation counting
[10] = target: T3, Melanocyte-stimulating hormone receptor; test: Agonist activity at human recombinant MC1 receptor expressed in HEK293 cells assessed as cAMP accumulation by enzyme fragment complementation assay relative to alpha melanocyte-stimulating hormone; type: functional, cell-based
Target sequence in this assay (Q01726 whole entry, looked up, the tested form may be a part): as the sequence (Q01726 whole entry, the tested form may be a part) above

T1 sequence (P32245 whole entry): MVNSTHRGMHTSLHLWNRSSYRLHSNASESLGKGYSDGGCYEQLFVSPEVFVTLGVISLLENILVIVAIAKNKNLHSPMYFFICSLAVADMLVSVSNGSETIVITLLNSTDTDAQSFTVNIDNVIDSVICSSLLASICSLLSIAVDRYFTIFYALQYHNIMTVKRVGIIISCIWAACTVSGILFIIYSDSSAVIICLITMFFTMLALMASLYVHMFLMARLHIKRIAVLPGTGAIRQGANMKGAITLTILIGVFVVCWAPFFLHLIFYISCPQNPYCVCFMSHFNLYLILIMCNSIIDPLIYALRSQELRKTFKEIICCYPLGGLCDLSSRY

Compound | EC50 [1] [nM] | microsomal CLint [3] [µL/min/mg] | further results
C[C@@H]1CN(C(=O)[C@@H]2CN(C(C)(C)C)C[C@H]2c2ccc(F)cc2F)C[C@H](C)[C@@]1(O)c1cccc(F)c1 | 6 | 52 | Emax [4]: 81%; EC50 [5]: 570 nM; EC50 [6]: > 6470 nM; EC50 [7]: 1800 nM; Emax [8]: 74%; logD [2]: 3.3; Ki [9]: 97 nM
CCC[C@@]1(O)[C@H](C)CN(C(=O)[C@@H]2CN(C(C)(C)C)C[C@H]2c2ccc(F)cc2F)C[C@@H]1C | 126 |  | EC50 [5]: > 24700 nM; EC50 [6]: 3610 nM; Emax [10]: 95%; Ki [9]: 844 nM
C[C@@H]1CN(C(=O)[C@@H]2CN(C(C)(C)C)C[C@H]2c2ccc(F)cc2F)C[C@H](C)[C@@]1(O)c1ccc(C(F)(F)F)cc1 | 108 | < 7 | logD [2]: 4.1
CC(C)N1C[C@@H](C(=O)N2C[C@@H](C)[C@](O)(c3ccc(F)c(F)c3)[C@@H](C)C2)[C@H](c2ccc(F)cc2F)C1 | 257 | 28 | logD [2]: 3.3
C[C@@H]1CN(C(=O)[C@@H]2CN(C(C)(C)C)C[C@H]2c2ccc(F)cc2F)C[C@H](C)[C@@]1(O)c1cccc(C#N)c1 | 644 |  | 
C[C@@H]1CN(C(=O)[C@H]2CN(c3cccnn3)C[C@@H]2c2ccc(F)cc2F)C[C@H](C)[C@@]1(O)C1CC1 | 82 |  | Emax [4]: 42%; EC50 [5]: 4130 nM; EC50 [6]: > 16700 nM; Ki [9]: 172 nM
COCCN1C[C@H](C(=O)N2C[C@@H](C)[C@](O)(c3ccccc3)[C@@H](C)C2)[C@@H](c2ccc(F)cc2F)C1 | 374 | 84 | logD [2]: 3.1
C[C@@H]1CN(C(=O)[C@@H]2CNC[C@H]2c2ccc(F)cc2F)C[C@H](C)[C@@]1(O)c1cccc(F)c1 | 159 |  | 
CC(C)[C@@]1(O)[C@H](C)CN(C(=O)[C@@H]2CN(C(C)(C)C)C[C@H]2c2ccc(F)cc2F)C[C@@H]1C | 626 |  | 
C[C@@H]1CN(C(=O)[C@H]2CN(c3ncccn3)C[C@@H]2c2ccc(F)cc2F)C[C@H](C)[C@@]1(O)c1ccccc1 | 243 |  | EC50 [5]: > 26700 nM; EC50 [6]: > 10000 nM; EC50 [7]: > 11100 nM; Ki [9]: 300 nM
C[C@@H]1CN(C(=O)[C@@H]2CN(C(C)(C)C)C[C@H]2c2ccc(F)cc2F)C[C@H](C)[C@@]1(O)C1CC1 | 962 | 14 | logD [2]: 2.2
C[C@@H]1CN(C(=O)[C@@H]2CN(C(C)(C)C)C[C@H]2c2ccc(F)cc2F)C[C@H](C)[C@@]1(O)c1cncnc1 | 11100 |  | 
C[C@@H]1CN(C(=O)C2CN(C(C)(C)C)CC2c2ccc(F)cc2F)C[C@H](C)[C@@]1(O)c1ccccc1 (mixture of isomers) | 3900 |  | 
C[C@@H]1CN(C(=O)[C@H]2CN(C(C)(C)C)C[C@@H]2c2ccc(F)cc2F)C[C@H](C)[C@@]1(O)c1ccccc1 | > 10000 |  | 
C[C@@H]1CN(C(=O)[C@H]2CN(CC3CC3)C[C@@H]2c2ccc(F)cc2F)C[C@H](C)[C@@]1(O)c1ccccc1 | 81 |  | 
C[C@@H]1CN(C(=O)[C@H]2CN(c3cncnc3)C[C@@H]2c2ccc(F)cc2F)C[C@H](C)[C@@]1(O)c1ccccc1 | 117 |  | 
CC(C)CN1C[C@H](C(=O)N2C[C@@H](C)[C@](O)(c3ccccc3)[C@@H](C)C2)[C@@H](c2ccc(F)cc2F)C1 | 73 |  | 
C[C@@H]1CN(C(=O)[C@H]2CN(c3cnccn3)C[C@@H]2c2ccc(F)cc2F)C[C@H](C)[C@@]1(O)c1ccccc1 | 111 |  | 
C[C@@H]1CN(C(=O)[C@@H]2CNC[C@H]2c2ccc(F)cc2F)C[C@H](C)[C@@]1(O)c1ccc(F)c(F)c1 | 288 | 7 | 
CC(C)[C@@]1(O)[C@H](C)CN(C(=O)[C@H]2CN(c3cccnn3)C[C@@H]2c2ccc(F)cc2F)C[C@@H]1C | 89 |  | 
CC(C)N1C[C@@H](C(=O)N2C[C@@H](C)[C@](O)(c3ccc(F)cc3F)[C@@H](C)C2)[C@H](c2ccc(F)cc2F)C1 | 220 |  | 
C[C@@H]1CN(C(=O)[C@H]2CN(c3ccccn3)C[C@@H]2c2ccc(F)cc2F)C[C@H](C)[C@@]1(O)c1ccccc1 | 15 |  | Emax [4]: 78%; EC50 [5]: 71 nM; EC50 [6]: > 16700 nM; EC50 [7]: 960 nM; Emax [8]: 29%; Ki [9]: 79 nM
C[C@@H]1CN(C(=O)[C@H]2CN(c3cccnn3)C[C@@H]2c2ccc(F)cc2F)C[C@H](C)[C@@]1(O)c1ccccc1 | 6 | 243 | Emax [4]: 89%; EC50 [5]: 490 nM; EC50 [6]: > 3070 nM; EC50 [7]: > 20000 nM; logD [2]: 3.3; Ki [9]: 10 nM
C[C@@H]1CN(C(=O)[C@@H]2CN(C)C[C@H]2c2ccc(F)cc2F)C[C@H](C)[C@@]1(O)c1ccccc1 | 717 |  | EC50 [5]: > 19100 nM; EC50 [6]: > 7810 nM; EC50 [7]: > 20000 nM; Ki [9]: 1070 nM
CC(C)N1C[C@@H](C(=O)N2C[C@@H](C)[C@](O)(c3cccc(F)c3)[C@@H](C)C2)[C@H](c2ccc(F)cc2F)C1 | 40 | 70 | logD [2]: 3.2
CC(C)(C)N1C[C@@H](C(=O)N2CCC(O)(c3ccccc3)CC2)[C@H](c2ccc(F)cc2F)C1 | 1170 |  | 
C[C@@H]1CN(C(=O)[C@@H]2CN(C(C)(C)C)C[C@H]2c2ccc(F)cc2F)C[C@H](C)[C@@]1(O)c1ccc(F)c(F)c1 | 15 | 22 | logD [2]: 3.5
C[C@@H]1CN(C(=O)[C@@H]2CN(C(C)(C)C)C[C@H]2c2ccc(F)cc2F)C[C@H](C)[C@@]1(O)c1cccnc1 | 3630 |  | 

More lines, main results first:

EC50 [1] [nM] | microsomal CLint [3] [µL/min/mg] | Compound | further results
51 |  | CCN1C[C@@H](C(=O)N2C[C@@H](C)[C@](O)(c3ccc(F)cc3F)[C@@H](C)C2)[C@H](c2ccc(F)cc2F)C1 | 
4 | 310 | C[C@@H]1CN(C(=O)[C@H]2CN(c3cccnn3)C[C@@H]2c2ccc(F)cc2F)C[C@H](C)[C@@]1(O)c1ccc(F)cc1 | logD [2]: 3.7
365 |  | C[C@@H]1CN(C(=O)[C@@H]2CN(C)C[C@H]2c2ccc(F)cc2F)C[C@H](C)[C@@]1(O)c1ccc(F)cc1 | EC50 [5]: > 33400 nM; EC50 [6]: > 6150 nM; EC50 [7]: 15000 nM; Emax [8]: 100%; Ki [9]: 346 nM
52 |  | CC(C)N1C[C@@H](C(=O)N2C[C@@H](C)[C@](O)(c3ccc(F)cc3)[C@@H](C)C2)[C@H](c2ccc(F)cc2F)C1 | 
347 |  | C[C@@H]1CN(C(=O)[C@@H]2CN(C(C)(C)C)C[C@H]2c2ccc(F)cc2F)C[C@H](C)[C@@]1(O)c1ccc(C#N)cc1 | 
61 | 73 | CCN1C[C@@H](C(=O)N2C[C@@H](C)[C@](O)(c3cccc(F)c3)[C@@H](C)C2)[C@H](c2ccc(F)cc2F)C1 | EC50 [5]: > 13500 nM; EC50 [6]: > 8250 nM; EC50 [7]: 6410 nM; Emax [8]: 92%; logD [2]: 2.9; Ki [9]: 355 nM
91 | 34 | CC(C)N1C[C@@H](C(=O)N2C[C@@H](C)[C@](O)(c3ccc(Cl)cc3)[C@@H](C)C2)[C@H](c2ccc(F)cc2F)C1 | logD [2]: 3.5
147 |  | CCN1C[C@@H](C(=O)N2C[C@@H](C)[C@](O)(c3ccc(F)cc3)[C@@H](C)C2)[C@H](c2ccc(F)cc2F)C1 | 
69 |  | CCN1C[C@@H](C(=O)N2C[C@@H](C)[C@](O)(c3ccc(F)c(F)c3)[C@@H](C)C2)[C@H](c2ccc(F)cc2F)C1 | 
19 |  | CCCN1C[C@H](C(=O)N2C[C@@H](C)[C@](O)(c3ccccc3)[C@@H](C)C2)[C@@H](c2ccc(F)cc2F)C1 | 
53 |  | COc1ccc([C@@]2(O)[C@H](C)CN(C(=O)[C@@H]3CN(C(C)(C)C)C[C@H]3c3ccc(F)cc3F)C[C@@H]2C)cc1 | 
130 |  | C[C@@H]1CN(C(=O)[C@@H]2CN(C)C[C@H]2c2ccc(F)cc2F)C[C@H](C)[C@@]1(O)c1ccc(Cl)cc1 | 
255 | 13 | C[C@@H]1CN(C(=O)[C@@H]2CNC[C@H]2c2ccc(F)cc2F)C[C@H](C)[C@@]1(O)c1ccc(F)cc1 | logD [2]: 1.8
85 |  | CCN1C[C@@H](C(=O)N2C[C@@H](C)[C@](O)(c3ccccc3)[C@@H](C)C2)[C@H](c2ccc(F)cc2F)C1 | 
